Measurements taken from paper PMC2864539 (Cancer research, 2010).

Columns and labels:
ovine COX-1 = target: T1, ovine COX-1 (Ovis aries, UniProt P05979); test: [[…]-14C]arachidonic acid conversion, radio-TLC; type: biochemical
T1 sequence (P05979 25-600): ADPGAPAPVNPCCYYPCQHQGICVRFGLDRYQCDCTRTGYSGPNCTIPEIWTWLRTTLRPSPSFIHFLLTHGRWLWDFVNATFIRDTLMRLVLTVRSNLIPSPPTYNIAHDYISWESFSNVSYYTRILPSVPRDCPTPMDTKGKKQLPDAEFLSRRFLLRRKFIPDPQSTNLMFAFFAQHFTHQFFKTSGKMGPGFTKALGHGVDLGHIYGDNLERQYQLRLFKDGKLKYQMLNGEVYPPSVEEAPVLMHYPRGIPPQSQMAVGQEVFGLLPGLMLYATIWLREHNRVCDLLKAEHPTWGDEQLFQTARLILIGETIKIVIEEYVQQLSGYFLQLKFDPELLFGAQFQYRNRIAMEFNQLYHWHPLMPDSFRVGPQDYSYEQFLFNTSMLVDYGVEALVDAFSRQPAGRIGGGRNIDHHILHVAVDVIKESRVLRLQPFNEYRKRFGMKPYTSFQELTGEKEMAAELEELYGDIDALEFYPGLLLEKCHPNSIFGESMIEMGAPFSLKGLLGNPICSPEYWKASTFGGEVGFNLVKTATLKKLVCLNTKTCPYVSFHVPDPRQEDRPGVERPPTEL

human COX-2 = target: T2, human COX-2 (Homo sapiens, UniProt P35354); test: [[…]-14C]arachidonic acid conversion, radio-TLC; type: biochemical
T2 sequence (P35354 18-604): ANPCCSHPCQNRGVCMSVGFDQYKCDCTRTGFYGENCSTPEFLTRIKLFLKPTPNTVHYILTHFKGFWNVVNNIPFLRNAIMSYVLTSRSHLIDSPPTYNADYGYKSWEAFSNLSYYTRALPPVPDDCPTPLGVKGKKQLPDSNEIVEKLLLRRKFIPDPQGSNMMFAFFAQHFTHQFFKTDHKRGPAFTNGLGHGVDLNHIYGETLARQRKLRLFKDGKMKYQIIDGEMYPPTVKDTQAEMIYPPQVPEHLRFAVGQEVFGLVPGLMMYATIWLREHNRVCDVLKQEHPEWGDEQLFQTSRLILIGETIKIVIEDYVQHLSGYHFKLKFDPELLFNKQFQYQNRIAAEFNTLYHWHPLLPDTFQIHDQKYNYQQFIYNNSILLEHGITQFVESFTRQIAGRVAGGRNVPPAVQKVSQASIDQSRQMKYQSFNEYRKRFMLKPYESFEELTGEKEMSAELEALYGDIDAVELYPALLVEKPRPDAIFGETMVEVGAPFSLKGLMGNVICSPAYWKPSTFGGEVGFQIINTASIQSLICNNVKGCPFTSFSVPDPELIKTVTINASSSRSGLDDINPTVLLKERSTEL

IC50 (ovine COX-1): > 66 µM
IC50 (human COX-2): > 4 µM
Compound: COc1ccc2c(c1)c(CC(=O)NCCNC(=O)c1ccc(C(=O)[O-])c(C3=c4cc5c6c(c4Oc4c3cc3c7c4CCCN7CCC3)CCC[N+]=6CCC5)c1)c(C)n2C(=O)c1ccc(Cl)cc1 [compound 3]
